According to patent US4288609A, “Quaternary ammonium derivatives of adamantane with antimicrobic activity” (priority 1976, dated 1981):
Like-named read-outs stand apart in the source and are kept apart here.

How the values were obtained:
Diplococcus Pneum. ISM = experiment: M.I.C. in vitro, gram+ Diplococcus Pneum. (Table 1); assay type: cell-based; settings: read-out: M.I.C.
Description: (§1) The method for evaluating the activity in vitro against bacteria, fungi and protozoa consists in introducing calculated quantities of the substance, the activity of which it is desired to test, into culture media already inoculated with a predetermined number of test germs.
(§2) After 24 or 48 hours of incubation at 30° or 37° C., according to the micro-organism being tested, it is possible to evaluate the growth of the same in the culture broth; in this manner the minimum concentration (M.I.C.) which inhibits the growth of the micro-organisms in vitro is determined.
(§3) In table 1 there are recorded the M.I.C. values in γ/ml of the products subject of the present invention, against certain gram+ and gram- bacterial strains, some of which are pathogenic towards human beings.

Proteus Vulc. ATCC 881 = experiment: M.I.C. in vitro, gram- Proteus Vulc. (Table 1); assay type: cell-based; settings: read-out: M.I.C.
Description: as §1, §2, §3

Pseudom.Aer. ATCC 1014 = experiment: M.I.C. in vitro, gram- Pseudom. Aer. (Table 1); assay type: cell-based, Pseudomonas Aeruginosa; settings: for MIC: Pseudomonas aeruginosa, read-out: M.I.C.
Description: as §1, §2, §3

[1] = test system: Trych. Mentagr. 1st.Pastuer; experiment: MIC mildews, Trichophyton mentagrophytes (Table 2); assay type: cell-based; settings: Sabourand broth
Description: as §1, §2
(§4) Inoculation with Trichophyton mentagrophytes and Microsporum canis was effected in a ratio of 1% of the volume of medium used.
(§5) For the fungi Sabourand broth was used as a culture medium, whilst for the protozoa Kupferberg Trichomonas broth with 5% of horse serum was used.

[2] = test system: Nicrosporum Canis ATCC 11621; experiment: MIC mildews, Microsporum canis (Table 2); assay type: cell-based; settings: Sabourand broth
Description: as §1, §2, §4, §5

[3] = test system: Trich. Vaginalis ISM 66/22; experiment: MIC protozoa, Trichomonas vaginalis (Table 2); assay type: cell-based; settings: +10% serum (head), Kupferberg Trichomonas broth with 5% of horse serum
Description: as §1, §2
Inoculation with Trichomonas vaginalis and Trichomonas foetus, obtained from cultures transplanted every other day to make them lively, was effected in a ratio of 3.5% of the volume of medium used.
as §5

[4] = test system: Escherichia Coli SKF 12140; experiment: Speed of sterilising action, Escherichia Coli (Table 3); assay type: cell-based
Description: (§6) The strains, inoculants, culture broths and experimental methods are as already seen for calculating the M.I.C. in vitro. The antimicrobic substances were tested at concentrations of 0.1, 0.25, 0.5 and 1 g/l, the contact times taken into consideration are 0, 1, 2.5, 5, 7.5, 10, 15, 30 and 60 minutes.
(§7) The samples which at the 7th day of incubation still had no growth of micro-organisms which could be observed macroscopically and/or microscopically were considered sterile.
(§8) The results are recorded in Table 3 in terms of sterilization time expressed in minutes.

[5] = test system: Trichophyton Mentagrophytes Ist. Pasteur; experiment: Speed of sterilising action, Trichophyton Mentagrophytes (Table 3); assay type: cell-based
Description: as §6, §7, §8

[6] = test system: Candida Albicans SKF 2270; experiment: Speed of sterilising action, Candida Albicans (Table 3); assay type: cell-based
Description: as §6, §7, §8

[7] = Acute oral toxicity in mice (Table 4); settings: mouse, in vivo, po, LD50, oral, mice, 14 days
Description: The substances were administered orally to groups of 10 female mice CF1 of average weight of about 20 grams, in aqueous solution and in such way that the total volume administered would be in each case 1 ml/100 g of weight.

Candida albicans = experiment: Activity upon vaginal candidiasis in mice (Table 7); assay type: in vivo, female Swiss mice (Charles River CD1); settings: for proliferation index (individual): eighth day
Description: The treatment groups consist each of 8 female Swiss mice (Charles River CD1) of average weight 20 g. The animals are infected with 0.025 ml of a 24 hour culture of Candida albicans, equal to 10^6 cellules.
0.025 ml of a suspension in lanoline of the compound to be tested, at the desired concentration, are applied locally twice a day for a week, the first treatment being started five hours after infection.
The control group is treated with the lanoline alone in the same way. On the eighth day vaginal washings are carried out with 0.025 ml of sterile physiological solution, and the liquid is sown in Petri dishes containing Bacto Biggy Agon Difco as a selective growing medium for the Candida.
After 48 hours of incubation of the dishes at 30° C. a count is taken of the colonies which have grown. Assessment of the activity is quantized using the indices listed here below:
The results are expressed as percentages of the average index of seriousness of the infection A.D.I. (Average Degree of Infection) in the animals treated with respect to the animals in the control group.
The substances under examination were tested at concentrations of 5 and 3% by weight.

[8] = test system: gram+ and gram- bacterial strains; experiment: Activity in vitro on gram+ and gram- bacteria, overall; assay type: cell-based; settings: gram positive and gram negative strains, low concentrations
Description: as §1, §2, §3

[9] = test system: all the micro-organisms tested; experiment: Speed of sterilising action, all micro-organisms; assay type: cell-based; settings: even with a very low concentration
Description: as §6, §7, §8

[10] = Trichophyton mentagrophytes, +10% serum, read-out: MIC
[11] = Trichophyton mentagrophytes, without serum, read-out: MIC
[12] = Microsporum canis, ATCC11621, +10% serum, read-out: MIC
[13] = Microsporum canis, ATCC11621, without serum, read-out: MIC
[14] = Trichomonas vaginalis, read-out: MIC

| SMILES | MIC (Diplococcus Pneum. ISM; +10% serum) | MIC (Diplococcus Pneum. ISM; without serum) | MIC (Proteus Vulc. ATCC 881; +10% serum) | MIC (Proteus Vulc. ATCC 881; without serum) | MIC (Pseudom.Aer. ATCC 1014; ATCC1014, +10% serum) | MIC [2, 12] | sterilization time ([4]; 0.1 g/l) | sterilization time ([4]; 0.25 g/l) | sterilization time ([4]; 0.5 g/l) | sterilization time ([4]; 1 g/l) | sterilization time ([5]; 0.1 g/l) | sterilization time ([5]; 0.25 g/l) | sterilization time ([5]; 0.5 g/l) | sterilization time ([5]; 1 g/l) | sterilization time ([6]; 0.1 g/l) | sterilization time ([6]; 0.25 g/l) | sterilization time ([6]; 0.5 g/l) | sterilization time ([6]; 1 g/l) | LD50 at 336 h [7] | % of healing (100-A.D.I. %) (Candida albicans; 3% by weight) | further results |
| --- | --- | --- | --- | --- | --- | --- | --- | --- | --- | --- | --- | --- | --- | --- | --- | --- | --- | --- | --- | --- | --- |
| CCCCCCCCCCCC[N+](C)(C)CCNC(=O)C12CC3CC(CC(C3)C1)C2 [Example 8] | 5 µg/mL | 1 µg/mL | 100 µg/mL | 5 µg/mL | 50 µg/mL | 20 µg/mL | 60 min | 60 min | 10 min | 7.5 min | 60 min | 60 min | 10 min | 5 min | 60 min | 15 min | 2.5 min | 2.5 min | 760 mg/kg | 63.03% | MIC (Pseudom.Aer. ATCC 1014; ATCC1014, without serum): 10 µg/mL; MIC [1, 10]: 5 µg/mL; MIC [1, 11]: 0.1 µg/mL; MIC [2, 13]: 0.1 µg/mL; MIC [3, 14]: 2 µg/mL; A.D.I. (compared with controls) (Candida albicans; 3% by weight): 36.97%; average proliferation index (A.D.I) (Candida albicans; 3% by weight): 0.88; proliferation index (individual) (Candida albicans; 3% by weight): 0-1-1-3-0-0-0-2; % of healing (100-A.D.I. %) (Candida albicans; 5% by weight): 78.99%; A.D.I. (compared with controls) (Candida albicans; 5% by weight): 21.01%; average proliferation index (A.D.I) (Candida albicans; 5% by weight): 0.50; no. of animals surviving (Candida albicans; 5% by weight, 8 animals): 2; proliferation index (individual) (Candida albicans; 5% by weight): 0-0-0-2-1-0-0-1; tolerance by vaginal mucous membrane (Candida albicans; mice, local): perfectly tolerated by very delicate tissues; topical in vivo activity against Candida albicans (in words) (Candida albicans; mouse, in vivo): excellent topical activity "in vivo" even against Candida albicans; antibacterial activity (in words) [8]: powerful antibacterial activity at low concentrations; sterilising action (in words) [9]: swift sterilising action on all the micro-organisms tested |
| CCCCCCCCCC[N+](C)(C)CCOC(=O)C12CC3CC(CC(C3)C1)C2 (single isomer, unassigned) [Example 1, n-Decyl-dimethyl-(1-adamantane-carboxy)-ethyl-ammonium bromide] | 5 µg/mL | 1 µg/mL | 50 µg/mL | 10 µg/mL | 50 µg/mL | 10 µg/mL | 60 min | 60 min | 15 min | 5 min | 60 min | 30 min | 15 min | 5 min | 30 min | 2.5 min | 1 min | 1 min | 910 mg/kg | 63.03% | M.I.C. (Pseudom.Aer. ATCC 1014; without serum): 20 µg/mL; MIC ([1]; +10% serum): 5 µg/mL; MIC ([1]; without serum): 0.1 µg/mL; MIC ([2]; without serum): 0.1 µg/mL; MIC [3]: 5 µg/mL; A.D.I. (compared with controls) (Candida albicans; 3% by weight): 36.97%; average proliferation index (A.D.I) (Candida albicans; 3% by weight): 0.88; % of healing (100-A.D.I. %) (Candida albicans; 5% by weight): 84.03%; A.D.I. (compared with controls) (Candida albicans; 5% by weight): 15.97%; average proliferation index (A.D.I) (Candida albicans; 5% by weight): 0.38; no. of animals surviving (Candida albicans; mouse, in vivo): 8; tolerance by vaginal mucous membrane (Candida albicans; mouse, in vivo): perfectly tolerated by very delicate tissues; topical in vivo activity against Candida albicans (in words) (Candida albicans; mouse, in vivo): excellent topical activity "in vivo" even against Candida albicans; antibacterial activity (in words) [8]: powerful antibacterial activity at low concentrations; sterilising action (in words) [9]: swift sterilising action on all the micro-organisms tested |
| CCCCCCCCCCCC[N+](C)(C)CCOC(=O)C12CC3CC(CC(C3)C1)C2 [Example 4] | 5 µg/mL | 0.5 µg/mL | 100 µg/mL | 2 µg/mL | 100 µg/mL | 20 µg/mL | 60 min | 60 min | 30 min | 10 min | 60 min | 60 min | 15 min | 5 min | 30 min | 10 min | 5 min | 1 min | 820 mg/kg | 57.98% | MIC (Pseudom.Aer. ATCC 1014; ATCC1014, without serum): 10 µg/mL; MIC [1, 10]: 5 µg/mL; MIC [1, 11]: 0.1 µg/mL; MIC [2, 13]: 0.1 µg/mL; MIC [3, 14]: 5 µg/mL; A.D.I. (compared with controls) (Candida albicans; 3% by weight): 42.02%; average proliferation index (A.D.I) (Candida albicans; 3% by weight): 1.00; no. of animals surviving (Candida albicans; 3% by weight, 8 animals): 8; proliferation index (individual) (Candida albicans; 3% by weight): 2-0-1-1-1-1--0-2; % of healing (100-A.D.I. %) (Candida albicans; 5% by weight): 84.03%; A.D.I. (compared with controls) (Candida albicans; 5% by weight): 15.97%; average proliferation index (A.D.I) (Candida albicans; 5% by weight): 0.38; no. of animals surviving (Candida albicans; 5% by weight, 8 animals): 8; tolerance by vaginal mucous membrane (Candida albicans; mice, local): perfectly tolerated by very delicate tissues; topical in vivo activity against Candida albicans (in words) (Candida albicans; mouse, in vivo): excellent topical activity "in vivo" even against Candida albicans; antibacterial activity (in words) [8]: powerful antibacterial activity at low concentrations; sterilising action (in words) [9]: swift sterilising action on all the micro-organisms tested |
